Among the data in patent US20100003246A1, “Novel heterocyclic compounds and uses therof” (priority 2008, published 2010) are IC50 values, retold here.

For orientation: IC50 means the concentration at which inhibition is half-maximal.

The target in the assay is T1, b-Raf(V600E) (Homo sapiens, UniProt P15056, V600E).
T1 construct: made in house
T1 sequence (P15056 whole entry V600E): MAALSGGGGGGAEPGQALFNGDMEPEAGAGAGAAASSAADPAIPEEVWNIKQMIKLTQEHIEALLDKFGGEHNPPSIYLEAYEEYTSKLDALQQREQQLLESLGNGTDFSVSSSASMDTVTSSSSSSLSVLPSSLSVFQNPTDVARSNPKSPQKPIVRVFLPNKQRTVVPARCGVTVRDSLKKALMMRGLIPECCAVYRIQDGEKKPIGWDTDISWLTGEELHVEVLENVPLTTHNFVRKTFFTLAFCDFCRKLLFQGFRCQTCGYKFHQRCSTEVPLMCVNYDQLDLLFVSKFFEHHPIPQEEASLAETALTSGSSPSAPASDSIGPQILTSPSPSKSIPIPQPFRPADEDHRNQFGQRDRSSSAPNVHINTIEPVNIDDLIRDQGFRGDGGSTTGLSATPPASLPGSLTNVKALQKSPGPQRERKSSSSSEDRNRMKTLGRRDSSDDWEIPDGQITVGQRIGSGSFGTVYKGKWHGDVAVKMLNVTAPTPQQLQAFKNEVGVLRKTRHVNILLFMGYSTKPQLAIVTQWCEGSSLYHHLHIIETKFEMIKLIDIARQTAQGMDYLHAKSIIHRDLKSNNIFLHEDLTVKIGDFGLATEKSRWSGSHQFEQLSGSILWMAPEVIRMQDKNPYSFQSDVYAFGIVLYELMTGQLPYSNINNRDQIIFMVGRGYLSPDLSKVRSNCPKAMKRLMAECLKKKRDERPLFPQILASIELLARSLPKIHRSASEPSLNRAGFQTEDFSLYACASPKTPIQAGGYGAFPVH
Put plainly: Raf/Mek Amplified Luminescence Proximity Homogeneous Assay (Alpha Screen), b-Raf(V600E). In kind it is biochemical. Conditions: mutant b-Raf(V600E), read-out: mut-b-RAF (IC50 in uM). The method, boiled down: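 IC50 derived by non-linear regression from AlphaScreen luminescence of phospho-MEK (anti-p-MEK antibody). Reaction: ~4 pM b-Raf(V600E), ~10 nM kinase-dead biotinylated Mek, 60 min compound pre-incubation, then 3 h with ATP at room temperature in pH 7.5 Tris/MgCl2/DTT buffer, quenched with EDTA.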
For `COc1cc(-c2nc(C(C)(C)C)[nH]c2-c2ccnc(Nc3ccc(C(F)(F)F)cc3)n2)cnc1N` [Compound 221, 4-(4-(6-amino-5-methoxypyridin-3-yl)-2-tert-butyl-1H-imidazol-5-yl)-N-(4-(trifluoromethyl)phenyl)-pyrimidin-2-amine], the IC50 was 0.2 nM.

`COc1cc(-c2nc(C(C)(C)C)[nH]c2-c2ccnc(Nc3ccc(Cl)c(C(F)(F)F)c3)n2)cnc1N` [Compound 222, 4-(4-(6-amino-5-methoxypyridin-3-yl)-2-tert-butyl-1H-imidazol-5-yl)-N-(4-chloro-3-(trifluoromethyl)phenyl) pyrimidin-2-amine]: the half-maximal inhibitory concentration (IC50) amounted to 0.2 nM.

Turning to `COc1nc(-c2nc(-c3ccc(C(F)(F)F)cc3)oc2-c2ccnc(NCC(C)C)n2)cnc1N` [Compound 223, 4-(4-(5-amino-6-methoxypyrazin-2-yl)-2-(4-(trifluoromethyl)phenyl)oxazol-5-yl)-N-isobutylpyrimidin-2-amine], the half-maximal inhibitory concentration (IC50) is 11 nM.

In the case of `COc1cc(-c2nc(-c3ccc(C(F)(F)F)cc3)oc2-c2ccnc(NCC(C)C)n2)cnc1N` [Compound 224, 4-(4-(6-amino-5-methoxypyridin-3-yl)-2-(4-(trifluoromethyl)phenyl)oxazol-5-yl)-N-isobutylpyrimidin-2-amine], the 50% inhibitory concentration (IC50) was found to be 14 nM.

Take `COc1cc(-c2nc(C(C)(C)C)[nH]c2-c2ccnc(NC[C@H](C)NC(=O)[C@@H](C)OC)n2)cnc1N` [Compound 225, (R)-N-((S)-1-(4-(4-(6-amino-5-methoxypyridin-3-yl)-2-tert-butyl-1H-imidazol-5-yl)pyrimidin-2-ylamino)propan-2-yl)-2-methoxypropanamide]: the IC50 amounted to 1.3 nM.

For the compound `COCC(=O)N[C@@H](C)CNc1nccc(-c2[nH]c(C(C)C)nc2-c2cnc(N)c(OC)c2)n1` [Compound 226, (S)-N-(1-(4-(4-(6-amino-5-methoxypyridin-3-yl)-2-isopropyl-1H-imidazol-5-yl)pyrimidin-2-ylamino)propan-2-yl)-2-methoxyacetamide], the IC50 worked out at 0.3 nM.

Regarding `COCC(=O)N[C@@H](C)CNc1nccc(-c2[nH]c(C(C)C)nc2-c2cnc(N)c(OC)n2)n1` [Compound 227, (S)-N-(1-(4-(4-(5-amino-6-methoxypyrazin-2-yl)-2-isopropyl-1H-imidazol-5-yl)pyrimidin-2-ylamino)propan-2-yl)-2-methoxyacetamide], the half-maximal inhibitory concentration (IC50) worked out at 0.3 nM.

As for `COc1cc(-c2nc(C(C)(C)C)n(C)c2-c2ccnc(NCC(C)C)n2)cnc1N` [Compound 228, 4-(4-(6-amino-5-methoxypyridin-3-yl)-2-tert-butyl-1-methyl-1H-imidazol-5-yl)-N-isobutylpyrimidin-2-amine], the IC50 amounted to 0.6 nM.

With `COCC(=O)N[C@@H](C)CNc1nccc(-c2oc(-c3ccc(C(F)(F)F)cc3)nc2-c2cnc(N)c(OC)n2)n1` [Compound 229, (S)-N-(1-(4-(4-(5-amino-6-methoxypyrazin-2-yl)-2-(4-(trifluoromethyl)phenyl)-oxazol-5-yl)pyrimidin-2-ylamino)propan-2-yl)-2-methoxyacetamide], the IC50 came out at 3 nM.

On to `COc1cc(Nc2nccc(-c3[nH]c(C(C)(C)C)nc3-c3cnc(N)c(OC)c3)n2)ccn1` [Compound 230, 4-(4-(6-amino-5-methoxypyridin-3-yl)-2-tert-butyl-1H-imidazol-5-yl)-N-(2-methoxypyridin-4-yl)pyrimidin-2-amine], for which the 50% inhibitory concentration (IC50) was 0.1 nM.

On to `COc1cc(Nc2nccc(-c3[nH]c(C(C)C)nc3-c3cnc(N)c(OC)c3)n2)ccn1` [Compound 231, 4-(4-(6-amino-5-methoxypyridin-3-yl)-2-isopropyl-1H-imidazol-5-yl)-N-(2-methoxypyridin-4-yl)pyrimidin-2-amine], for which the IC50 stood at 0.2 nM.

Consider `COc1cc(-c2nc(-c3ccc(C(F)(F)F)cc3)oc2-c2ccnc(NCC(C)C)c2)cnc1N` [Compound 232, 4-(4-(6-amino-5-methoxypyridin-3-yl)-2-(4-(trifluoromethyl)phenyl)-oxazol-5-yl)-N-isobutylpyridin-2-amine], for which the IC50 was 8.4 nM.

As to `COc1cc(Nc2nccc(-c3[nH]c(C(C)(C)C)nc3-c3cnc4[nH]cc(Cl)c4c3)n2)ccn1` [Compound 233, 4-(2-tert-butyl-4-(3-chloro-1H-pyrrolo[2,3-b]pyridin-5-yl)-1H-imidazol-5-yl)-N-(2-methoxypyridin-4-yl)pyrimidin-2-amine], the IC50 worked out at 0.3 nM.

`COC(=O)N[C@@H](C)CNc1nccc(-c2nc(C(C)(C)C)[nH]c2-c2cnc(N)c(C(C)=O)c2)n1` [Compound 235, (S)-methyl-1-(4-(5-(5-acetyl-6-aminopyridin-3-yl)-2-tert-butyl-1H-imidazol-4-yl)pyrimidin-2-ylamino)propan-2-ylcarbamate]: the IC50 was 0.4 nM.

As to `CCOC(=O)N[C@@H](C)CNc1nccc(-c2[nH]c(C(C)(C)C)nc2-c2cnc(N)c(OC)n2)n1` [Compound 236, (S)-ethyl 1-(4-(4-(5-amino-6-methoxypyrazin-2-yl)-2-tert-butyl-1H-imidazol-5-yl)pyrimidin-2-ylamino)propan-2-ylcarbamate], the IC50 is 0.1 nM.

On to `COc1nc(-c2nc(C(C)(C)C)[nH]c2-c2ccnc(NC[C@H](C)NC(=O)OC(C)C)n2)cnc1N` [Compound 237, (S)-isopropyl 1-(4-(4-(5-amino-6-methoxypyrazin-2-yl)-2-tert-butyl-1H-imidazol-5-yl)pyrimidin-2-ylamino)propan-2-ylcarbamate], for which the 50% inhibitory concentration (IC50) was determined as 0.1 nM.

Take `COc1nc(-c2nc(C(C)(C)C)[nH]c2-c2ccnc(NC[C@H](C)NC(=O)OCC(C)(C)C)n2)cnc1N` [Compound 238, (S)-neopentyl 1-(4-(4-(5-amino-6-methoxypyrazin-2-yl)-2-tert-butyl-1H-imidazol-5-yl)pyrimidin-2-ylamino)propan-2-ylcarbamate]: the 50% inhibitory concentration (IC50) was 0.1 nM.

As for `COc1nc(-c2nc(C(C)(C)C)[nH]c2-c2ccnc(NC[C@H](C)NC(=O)OCC(C)C)n2)cnc1N` [Compound 239, (S)-isobutyl 1-(4-(4-(5-amino-6-methoxypyrazin-2-yl)-2-tert-butyl-1H-imidazol-5-yl)pyrimidin-2-ylamino)propan-2-ylcarbamate], the IC50 was 0.1 nM.

As to `COC(=O)N[C@@H](C)CNc1nccc(-c2nc(C(C)(C)C)[nH]c2-c2ccc3[nH]ccc3c2)n1` [Compound 240, (S)-methyl 1-(4-(2-tert-butyl-5-(1H-indol-5-yl)-1H-imidazol-4-yl)pyrimidin-2-ylamino)propan-2-ylcarbamate], the IC50 was found to be 13.8 nM.

As for `COc1cc(-c2nc(C(C)(C)C)[nH]c2-c2ccnc(NC[C@H](C)NC(=O)[C@H](C)OC)n2)cnc1N` [Compound 241, (S)-N-((S)-1-(4-(4-(6-amino-5-methoxypyridin-3-yl)-2-tert-butyl-1H-imidazol-5-yl)pyrimidin-2-ylamino)propan-2-yl)-2-methoxypropanamide], the 50% inhibitory concentration (IC50) was 0.7 nM.

For `COc1nc(-c2nc(C(C)(C)C)[nH]c2-c2ccnc(NC[C@H](C)NC(=O)[C@H](C)OC)n2)cnc1N` [Compound 242, (S)-N-((S)-1-(4-(4-(5-amino-6-methoxypyrazin-2-yl)-2-tert-butyl-1H-imidazol-5-yl)pyrimidin-2-ylamino)propan-2-yl)-2-methoxypropanamide], the concentration for half-maximal inhibition (IC50) came out at 0.2 nM.

As for `CCc1nc(-c2cnc(N)c(OC)c2)c(-c2ccnc(Nc3ccnc(OC)c3)n2)[nH]1` [Compound 243, 4-(4-(6-amino-5-methoxypyridin-3-yl)-2-ethyl-1H-imidazol-5-yl)-N-(2-methoxypyridin-4-yl)pyrimidin-2-amine], the half-inhibitory concentration (IC50) worked out at 0.4 nM.

As to `COc1cc(Nc2nccc(-c3[nH]c(C)nc3-c3cnc(N)c(OC)c3)n2)ccn1` [Compound 244, 4-(4-(6-amino-5-methoxypyridin-3-yl)-2-methyl-1H-imidazol-5-yl)-N-(2-methoxypyridin-4-yl)pyrimidin-2-amine], the IC50 worked out at 3 nM.

For the compound `COc1cc(Nc2nccc(-c3[nH]c(C)nc3-c3cnc(N)c(OC)n3)n2)ccn1` [Compound 245, 4-(4-(5-amino-6-methoxypyrazin-2-yl)-2-methyl-1H-imidazol-5-yl)-N-(2-methoxypyridin-4-yl)pyrimidin-2-amine], the half-maximal inhibitory concentration (IC50) came out at 11 nM.

In the case of `COc1cc(-c2nc(C(C)(C)C)oc2-c2ccnc(NCC(C)C)c2)cnc1N` [Compound 246, 4-(4-(6-amino-5-methoxypyridin-3-yl)-2-tert-butyloxazol-5-yl)-N-isobutylpyridin-2-amine], the IC50 was found to be 0.1 nM.

Take `COCC(=O)N[C@@H](C)CNc1nccc(-c2[nH]c(-c3ccc(C(F)(F)F)cc3F)nc2-c2cnc(N)c(OC)n2)n1` [Compound 247, (S)-N-(1-(4-(4-(5-amino-6-methoxypyrazin-2-yl)-2-(2-fluoro-4-(trifluoromethyl)phenyl)-1H-imidazol-5-yl)pyrimidin-2-ylamino)propan-2-yl)-2-methoxyacetamide]: the IC50 was determined as 0.1 nM.

Turning to `COCC(=O)N[C@H](C)CNc1nccc(-c2[nH]c(-c3ccc(F)cc3)nc2-c2cnc(N)c(OC)n2)n1` [Compound 249, (R)-N-(1-(4-(4-(5-amino-6-methoxypyrazin-2-yl)-2-(4-fluorophenyl)-1H-imidazol-5-yl)pyrimidin-2-ylamino)propan-2-yl)-2-methoxyacetamide], the IC50 worked out at 12 nM.

As for `COCC(=O)N[C@@H](C)CNc1nccc(-c2[nH]c(C3CC3)nc2-c2cnc(N)c(OC)n2)n1` [Compound 250, (S)-N-(1-(4-(4-(5-amino-6-methoxypyrazin-2-yl)-2-cyclopropyl-1H-imidazol-5-yl)pyrimidin-2-ylamino)propan-2-yl)-2-methoxyacetamide], the 50% inhibitory concentration (IC50) turned out to be 0.1 nM.

`COC(=O)N[C@@H](C)CNc1nccc(-c2[nH]c(C3(C)CC3)nc2-c2cnc(N)c(OC)n2)n1` [Compound 251, (S)-methyl 1-(4-(4-(5-amino-6-methoxypyrazin-2-yl)-2-(1-methylcyclopropyl)-1H-imidazol-5-yl)pyrimidin-2-ylamino)propan-2-ylcarbamate]: the IC50 is 0.04 nM.
